Data taken from patent US9963445B2, “Chemical compounds” (SYNGENTA PARTICIPATIONS AG, priority 2013, dated 2018).

Experiments:
Assay type in all cases: in vivo
[1] = system: Amaranthus retroflexus; test: Pre-emergence herbicidal activity, glasshouse pot test; details: pre-emergence spray, rate 1000 g/ha, evaluated after 13 days, scale 0-5
Method in brief: (§1)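 Damage score 0–5 (5 = total damage) read 13 d after spraying. Pots sown, sprayed pre-emergence at day 1 with aqueous spray from acetone/water 50:50 + 0.5% Tween 20 formulation; glasshouse 24/16 °C, 14 h light, 65% RH.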

[2] = system: Abutilon theophrasti; test: as above; details: pre-emergence spray, rate 1000 g/ha, evaluated after 13 days, scale 0-5
Method in brief: as §1

[3] = system: zea mays; test: as above; details: pre-emergence spray, rate 1000 g/ha, evaluated after 13 days, scale 0-5
Method in brief: as §1

[4] = system: Echinochloa crus-galli; test: as above; details: pre-emergence spray, rate 1000 g/ha, evaluated after 13 days, scale 0-5
Method in brief: as §1

[5] = system: Alopecurus myosuroides; test: as above; details: pre-emergence spray, rate 1000 g/ha, evaluated after 13 days, scale 0-5
Method in brief: as §1

[6] = system: Setaria faberi; test: as above; details: pre-emergence spray, rate 1000 g/ha, evaluated after 13 days, scale 0-5
Method in brief: as §1

[7] = system: Amaranthus retroflexus; test: Post-emergence herbicidal activity, glasshouse pot test; set-up: key: 0 = no damage to plant, 5 = total damage to plant; details: Application post-emergence, rate 1000 g/ha, evaluated after 13 days
Method in brief: (§2)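 After 8 days of glasshouse growth at 24/16 °C day/night, potted plants receive a foliar spray of the formulated compound (0.5% Tween 20 in acetone/water). They are then watered twice daily under unchanged conditions, and phytotoxicity is scored 0–5 after 13 days.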

[8] = system: Abutilon theophrasti; test: as above; set-up: key: 0 = no damage to plant, 5 = total damage to plant; details: Application post-emergence, rate 1000 g/ha, evaluated after 13 days
Method in brief: as §2

[9] = system: zea mays; test: as above; set-up: key: 0 = no damage to plant, 5 = total damage to plant; details: Application post-emergence, rate 1000 g/ha, evaluated after 13 days
Method in brief: as §2

[10] = system: Echinochloa crus-galli; test: as above; set-up: key: 0 = no damage to plant, 5 = total damage to plant; details: Application post-emergence, rate 1000 g/ha, evaluated after 13 days
Method in brief: as §2

[11] = system: Alopecurus myosuroides; test: as above; set-up: key: 0 = no damage to plant, 5 = total damage to plant; details: Application post-emergence, rate 1000 g/ha, evaluated after 13 days
Method in brief: as §2

[12] = system: Setaria faberi; test: as above; set-up: key: 0 = no damage to plant, 5 = total damage to plant; details: Application post-emergence, rate 1000 g/ha, evaluated after 13 days
Method in brief: as §2

Compound | AMARE damage score, application pre-emergence [1] | ABUTH damage score, application pre-emergence [2] | ZEAMX damage score, application pre-emergence [3] | ECHCG damage score, application pre-emergence [4] | ALOMY damage score, application pre-emergence [5] | SETFA damage score, application pre-emergence [6] | AMARE herbicidal damage score [7] | ABUTH herbicidal damage score [8] | ZEAMX herbicidal damage score [9] | ECHCG herbicidal damage score [10] | ALOMY herbicidal damage score [11] | SETFA herbicidal damage score [12]
COC1=C(C)C(O)N(c2ccc([N+](=O)[O-])cn2)C1=O (stereo not drawn) [AI29] | 2 | 0 | 0 | 0 | 1 | 1 | 0 | 0 | 1 | 0 | 0 | 0
CC1=C(Cl)C(=O)N(c2cc(C3CC3)ncn2)C1O (stereo not drawn) [CF4] | 5 | 5 | 1 | 4 | 3 | 5 | 5 | 5 | 2 | 5 | 5 | 5
COC1=C(C)C(O)N(c2cc(C(C)(F)F)c(-c3ccc(C)c(F)c3)nn2)C1=O (stereo not drawn) [BI20] | 3 | 0 | 1 | 1 | 2 | 1 | 5 | 5 | 1 | 3 | 2 | 4
COC1=C(Br)C(=O)N(c2cc(C(F)(F)F)ccn2)C1O (stereo not drawn) [AJ1, 4-bromo-2-hydroxy-3-methoxy-1-[4-(trifluoromethyl)-2-pyridyl]-2H-pyrrol-5-one] | 4 | 5 | 2 | 5 | 4 | 5 | 5 | 5 | 2 | 5 | 5 | 5
CC(=O)c1ccnc(N2C(=O)C(Cl)=C(C)C2O)c1 (stereo not drawn) [AF30] | 3 | 3 | 1 | 2 | 1 | 1 | 1 | 1 | 1 | 2 | 2 | 3
COC1=C(C)C(O)N(c2cc(C(F)(F)F)c(-c3cncnc3)cn2)C1=O (stereo not drawn) [AI13] | 4 | 2 | 3 | 3 | 3 | 2 | 5 | 5 | 4 | 5 | 5 | 5
CCN(C)c1cc(N2C(=O)C(Cl)=C(C)C2O)ncn1 (stereo not drawn) [CF16] | 2 | 2 | 1 | 2 | 1 | 4 | 3 | 3 | 1 | 5 | 4 | 5
COC1=C(C)C(O)N(c2cc(C(C)(C)C)c(Cl)nn2)C1=O (stereo not drawn) [BI1] | 3 | 4 | 4 | 5 | 4 | 5 | 5 | 5 | 4 | 5 | 5 | 5
CC1=C(Cl)C(=O)N(c2cc(C(F)(F)F)ncn2)C1O (stereo not drawn) [CF3] | 3 | 5 | 1 | 4 | 3 | 3 | 3 | 5 | 4 | 5 | 5 | 5
COC1=C(C)C(O)N(c2cc3c(cn2)CCCC3)C1=O (stereo not drawn) [AI7] | 3 | 1 | 0 | 5 | 2 | 5 | 3 | 4 | 1 | 5 | 3 | 5
CC1=C(Cl)C(=O)N(c2cc(C(F)(F)F)c(-c3ccc(Cl)cc3)cn2)C1O (stereo not drawn) [AF87] | 2 | 0 | 0 | 0 | 2 | 3 | 5 | 4 | 3 | 4 | 4 | 5
COC1=C(C)C(O)N(c2ccc(N)cn2)C1=O (stereo not drawn) [AI28] | 1 | 2 | 1 | 0 | 1 | 1 | 1 | 1 | 1 | 1 | 1 | 1
COC1=C(C)C(O)N(c2cc(C)c(-c3cnn(C)c3)nn2)C1=O (stereo not drawn) [BI33] | 0 | 0 | 0 | 0 | 0 | 0 | 4 | 0 | 1 | 2 | 2 | 2
COC1=C(C)C(O)N(c2cc(C(C)(C)F)c(-c3ccc(F)cc3)nn2)C1=O (stereo not drawn) [BI11] | 5 | 4 | 2 | 2 | 2 | 4 | 5 | 4 | 2 | 4 | 4 | 5
COC1=C(OC)C(O)N(c2cc(Br)ccn2)C1=O (stereo not drawn) [AK5] | 1 | 0 | 0 | 4 | 1 | 1 | 5 | 5 | 0 | 5 | 5 | 5
COC1=C(C)C(O)N(c2cc(C(C)(C)F)c(C)nn2)C1=O (stereo not drawn) [BI16] | 5 | 5 | 3 | 4 | 3 | 5 | 5 | 5 | 4 | 5 | 4 | 5
